Measured values taken from patent US20240261292A1, “COMBINATION THERAPIES” (Janssen Pharmaceutica NV, priority 2021, published 2024).
Where a name gives a salt, the structure may show the parent alone.

Key:
[1] = test system: MOLM-14 cells; assay: Proliferation assay (spheroid), MOLM-14; assay type: cell-based; conditions: Homo sapiens, 8 days, read-out: spheroid assay_OneTime MOLM-14 IC50
[2] = target: hERG (Homo sapiens (Human), UniProt Q12809); assay: hERG current in hERG-transfected HEK293 cells (Protocol 2, SyncroPatch 384PE); assay type: cell-based; conditions: Protocol 2, HEK293 cells
Chain of hERG (Q12809 whole entry): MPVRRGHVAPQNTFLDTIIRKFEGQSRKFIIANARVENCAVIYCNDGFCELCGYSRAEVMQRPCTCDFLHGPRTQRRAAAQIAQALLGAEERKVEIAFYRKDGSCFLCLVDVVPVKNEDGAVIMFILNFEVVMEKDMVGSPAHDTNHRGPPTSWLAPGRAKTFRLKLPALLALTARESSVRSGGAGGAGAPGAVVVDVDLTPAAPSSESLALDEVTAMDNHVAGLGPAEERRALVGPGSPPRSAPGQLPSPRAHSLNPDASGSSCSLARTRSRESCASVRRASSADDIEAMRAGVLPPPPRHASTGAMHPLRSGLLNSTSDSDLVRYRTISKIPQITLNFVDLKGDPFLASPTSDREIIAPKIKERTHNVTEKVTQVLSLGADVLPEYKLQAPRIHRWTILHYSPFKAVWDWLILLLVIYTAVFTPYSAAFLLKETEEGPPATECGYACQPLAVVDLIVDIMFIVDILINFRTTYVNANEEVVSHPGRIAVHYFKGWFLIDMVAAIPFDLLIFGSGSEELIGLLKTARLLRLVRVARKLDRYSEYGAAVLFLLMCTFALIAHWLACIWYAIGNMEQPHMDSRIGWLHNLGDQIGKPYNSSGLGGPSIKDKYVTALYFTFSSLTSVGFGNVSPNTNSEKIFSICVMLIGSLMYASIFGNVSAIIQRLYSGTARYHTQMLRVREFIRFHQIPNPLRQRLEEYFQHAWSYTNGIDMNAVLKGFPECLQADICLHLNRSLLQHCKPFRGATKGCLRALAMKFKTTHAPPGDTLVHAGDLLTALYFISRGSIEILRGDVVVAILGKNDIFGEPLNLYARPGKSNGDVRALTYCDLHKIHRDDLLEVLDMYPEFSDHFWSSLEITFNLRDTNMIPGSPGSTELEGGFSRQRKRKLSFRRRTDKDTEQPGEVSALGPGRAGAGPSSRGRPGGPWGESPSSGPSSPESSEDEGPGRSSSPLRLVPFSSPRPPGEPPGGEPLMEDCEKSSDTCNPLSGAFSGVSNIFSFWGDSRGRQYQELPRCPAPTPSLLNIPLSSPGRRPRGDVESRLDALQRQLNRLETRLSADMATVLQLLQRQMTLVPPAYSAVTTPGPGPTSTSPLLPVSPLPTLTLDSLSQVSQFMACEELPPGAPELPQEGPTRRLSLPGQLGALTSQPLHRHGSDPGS
Description: The compound, vehicle control and positive control were tested on hERG-transfected HEK293 cells. A human embryonic kidney cell line (HEK293) with a stable transfection of hERG (Zhou Z et al. Biophysical Journal 1998. 74, 230-241; McDonald T. V. et al, Nature 1997. 388, 289-292) was used (University of Wisconsin, Madison, USA). The cells were kept in culture in MEM (Minimum Essential Medium, Gibco) which was supplemented with (amounts indicated added to 500 ml MEM): 5 ml L-Glutamine-Penicillin-Streptomycin (Sigma), 50 ml Fetal Bovine serum (Bio-Whittaker), 5 ml Non-essential Amino Acids 100× (Gibco), 5 mil sodium pyruvate 100 mM (Gibco) and 4 ml geneticin 50 mg/ml (Gibco) using T175 flasks.
Cells were harvested as described below using Accumax™ (Sigma) as the dissociating reagent. Cells were then resuspended in a mixture of 33% DMEM/F12 (Dulbecco's Modified Eagle Medium/Nutrient Mixture F-12—Sigma) media/67% extracellular physiological solution. […]
The whole cell patch clamp technique on transfected cells allows the study of ion-channels with no—or limited interference from other ion-channels. […] All cells were recorded in the whole cell mode of the patch clamp technique. […]
After the whole cell mode was achieved, test pulses were given for ˜10 minutes to quantify the hERG current in control conditions. […]

[3] = Metabolic stability in human liver microsomes; assay type: in vitro ADME; conditions: pH 7.4, 0.5 mg/mL microsomes protein, read-out: Human LM Clint
Description: 4) Metabolic Stability in Human/Mouse Liver Microsomes
The objective of this study is to measure in vitro metabolic stability of test compound(s) in human and mouse liver microsomes and provide quantitative information on the rate of metabolic turnover (i.e., determination of the apparent intrinsic clearance of test).
Test items were prepared at a stock concentration of 10 mM in DMSO. For determination of metabolic turnover, a final working solution was prepared by adding 2 μL of 10 mM DMSO stock solution for test compound or positive control compounds to 198 μL of acetonitrile (100 μM final concentration).
Incubations were performed as follows: First, liver microsomes were thawed on ice and a master solution containing liver microsomes in 100 mM PBS (phosphate-buffered saline) at pH 7.4 is prepared. Next, the liver microsomes solution was added to the incubation plates and 10 mM NADPH (Nicotinamide-adenine dinucleotide phosphate) was added (MW: 833.4 g/mol; Roche Diagnostics GmbH1, Germany. Dissolved in phosphate buffer (100 mmol/L, pH 7.4)). […]
All calculations were carried out using Microsoft Excel. The slope value, k, was determined by linear regression of the natural logarithm of the remaining percentage of the parent drug vs. incubation time curve.
The in vitro half-life (in vitro t1/2) was determined from the slope value: […]

[4] = test system: OCI-AML3 tumors; assay: Efficacy study in disseminated OCI-AML3 model; assay type: in vivo, SCID beige mice
Description: Day 0 is the day of tumor cell implantation and study initiation.
Median survival was determined utilizing Kaplan-Meier survival analysis.

| IC50 [1] [nM] | microsomal CLint at 1 μM [3] [µL/min/mg] | Compound | IC50 [2] [µM] | median days of survival ([4]; 30 mg/kg PO daily for 28 days) [days] | median days of survival ([4]; 50 mg/kg PO daily for 28 days) [days] | median days of survival ([4]; 100 mg/kg PO daily for 28 days) [days] |
| --- | --- | --- | --- | --- | --- | --- |
| 21 | 14 | CCN(C(=O)c1cc(F)ccc1Oc1nncnc1N1CCC2(C1)CN([C@H](CCCNCCOC)C(C)C)C2)C(C)C [Compound 11, (R)-N-ethyl-5-fluoro-N-isopropyl-2-((5-(2-(6-((2-methoxyethyl)amino)-2-methylhexan-3-yl)-2,6-diazaspiro[3.4]octan-6-yl)-1,2,4-triazin-6-yl)oxy)benzamide] | > 30.2 | – | – | – |
| – | – | CCN(C(=O)c1cc(F)ccc1Oc1nncnc1N1CCC2(C1)CN([C@H](CCCN(C)CCOC)C(C)C)C2)C(C)C [Compound A3, (R)-N-ethyl-5-fluoro-N-isopropyl-2-((5-(2-(6-((2-methoxyethyl) (methyl)amino)-2-methylhexan-3-yl)-2,6-diazaspiro[3.4]octan-6-yl)-1,2,4-triazin-6-yl)oxy) benzamide oxalate] | – | 75.5 | 58.5 | 75 |
